Holding throughout (format): binding
The target of assay [1] is T1, dihydroorotase (ScDHOase) (Saccharomyces cerevisiae, UniProt P20051).
T1 construct: gene URA4
T1 sequence (P20051 1-364): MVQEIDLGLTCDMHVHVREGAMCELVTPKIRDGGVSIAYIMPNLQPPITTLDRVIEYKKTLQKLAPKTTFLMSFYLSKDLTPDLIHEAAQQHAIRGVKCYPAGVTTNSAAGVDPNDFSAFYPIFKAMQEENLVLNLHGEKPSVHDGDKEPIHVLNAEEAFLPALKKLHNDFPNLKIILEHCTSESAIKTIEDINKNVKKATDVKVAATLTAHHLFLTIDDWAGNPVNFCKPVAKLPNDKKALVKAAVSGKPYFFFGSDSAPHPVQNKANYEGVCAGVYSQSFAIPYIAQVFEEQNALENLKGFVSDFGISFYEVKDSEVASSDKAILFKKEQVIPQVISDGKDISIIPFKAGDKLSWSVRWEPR
In words: Kd by intrinsic fluorescence quenching.

Assay [2] addresses T2, dihydroorotase (ScDHOase-T106A) (Saccharomyces cerevisiae, UniProt P20051, T106A).
T2 construct: gene URA4
As to the kind of experiment: intrinsic fluorescence quenching titration.

Assay [3] deals with T3, dihydroorotase (ScDHOase-R18A) (Saccharomyces cerevisiae, UniProt P20051, R18A).
T3 construct: gene URA4
T3 sequence (P20051 whole entry R18A): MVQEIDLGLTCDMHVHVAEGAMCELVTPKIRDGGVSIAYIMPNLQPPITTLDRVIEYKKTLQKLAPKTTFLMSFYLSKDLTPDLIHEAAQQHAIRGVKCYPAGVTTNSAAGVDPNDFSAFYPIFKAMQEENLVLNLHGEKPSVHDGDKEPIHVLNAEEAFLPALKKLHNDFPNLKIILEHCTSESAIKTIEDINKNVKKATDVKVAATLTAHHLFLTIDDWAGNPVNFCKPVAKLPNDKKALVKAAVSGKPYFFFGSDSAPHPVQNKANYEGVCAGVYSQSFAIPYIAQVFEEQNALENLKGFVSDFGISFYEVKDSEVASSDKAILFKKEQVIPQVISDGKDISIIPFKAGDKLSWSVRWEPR
As to the kind of experiment: intrinsic fluorescence quenching titration.

T2 sequence (P20051 whole entry T106A): as the sequence (P20051 whole entry R18A) above, with A18R, T106A counted along it

Consider `O=C(O)c1[nH]c(=O)[nH]c(=O)c1F` [5-FOA, 5-fluoroorotate], for which the values for the Kd in assay [1], in assay [2] and in assay [3] were 83.8 ± 1.5 µM, 115 ± 3.7 µM and 144 ± 2.1 µM, respectively.

The Kd is a measure of binding affinity in units of concentration. A high value points to weaker binding.

Source of the values: paper PMC8497156, “Complexed Crystal Structure of Saccharomyces cerevisiae Dihydroorotase with Inhibitor 5-Fluoroorotate Reveals a New Binding Mode” (Bioinorganic Chemistry and Applications, 2021).
